Values quoted from earlier work as cited in patent US20220409620A1, “REDUCING IMMUNOGENICITY TO PEGLOTICASE” (Horizon Pharma Rheumatology LLC, priority 2016, published 2022).

Test system: patients
Conditions: patients treated with allopurinol; cited from earlier work

## Oc1ncnc2[nH]ncc12 [allopurinol]
  patients developing allergic reactions: Approximately 2%
  severe hypersensitivity syndrome: about 0.4%
